Columns and labels:
wild oat = experiment: Test B pre/postemergence wild oat; format: in vivo, Avena fatua; details: Preemergence; for Plant response rating, Wild oats: Rate 125 g/ha
Summary of the method: (§1)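 Response is a visual 0-to-10 score relative to untreated plants, where 0 means no effect and 10 means complete control, taken twelve to sixteen days after application. Treatments went onto soil at planting and onto foliage of 1- to 4-leaf plants, using a surfactant-containing non-phytotoxic solvent.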

corn = experiment: Test B pre/postemergence corn; format: in vivo, Zea mays; details: Preemergence
Summary of the method: as §1

sugar beet = experiment: Test B pre/postemergence sugar beet; format: in vivo, Beta vulgaris; details: Preemergence; for Plant response rating, Sugarbeets: Rate 125 g/ha
Summary of the method: as §1

morningglory = experiment: Test B pre/postemergence morningglory; format: in vivo, Ipomoea hederacea; details: Preemergence; for Plant response rating, Morningglory: Rate 125 g/ha
Summary of the method: as §1

wheat = experiment: Test B pre/postemergence wheat; format: in vivo, Triticum aestivum; details: Preemergence; for Plant response rating, Wheat: Rate 125 g/ha
Summary of the method: as §1

surinam grass = experiment: Test B pre/postemergence surinam grass; format: in vivo, Brachiaria decumbens; details: Preemergence
Summary of the method: as §1

velvetleaf = experiment: Test B pre/postemergence velvetleaf; format: in vivo, Abutilon theophrasti; details: Preemergence; for Plant response rating, Velvetleaf: Rate 125 g/ha
Summary of the method: as §1

pigweed = experiment: Test B pre/postemergence pigweed; format: in vivo, Amaranthus retroflexus; details: Preemergence; for Plant response rating, Redroot pigweed: Rate 125 g/ha
Summary of the method: as §1

bedstraw = experiment: Test B pre/postemergence bedstraw; format: in vivo, Galium aparine; details: Preemergence
Summary of the method: as §1

purple nutsedge = experiment: Test B pre/postemergence purple nutsedge; format: in vivo, Cyperus rotundus; details: Preemergence
Summary of the method: as §1

giant foxtail = experiment: Test B pre/postemergence giant foxtail; format: in vivo, Setaria faberii; details: Preemergence; for Plant response rating, Giant foxtail: Rate 125 g/ha
Summary of the method: as §1

soybean = experiment: Test B pre/postemergence soybean; format: in vivo, Glycine max; details: Preemergence; for Plant response rating, Soybean: Rate 125 g/ha
Summary of the method: as §1

cocklebur = experiment: Test B pre/postemergence cocklebur; format: in vivo, Xanthium strumarium; details: Preemergence
Summary of the method: as §1

rape = experiment: Test B pre/postemergence rape; format: in vivo, Brassica napus; details: Preemergence; for Plant response rating, Rape: Rate 125 g/ha
Summary of the method: as §1

blackgrass = experiment: Test B pre/postemergence blackgrass; format: in vivo, Alopecurus myosuroides; details: Preemergence
Summary of the method: as §1

crabgrass = experiment: Test B pre/postemergence crabgrass; format: in vivo, Digitaria sanguinalis; details: Preemergence
Summary of the method: as §1

[1] = Rate 62 g/ha, scale of 0 to 10 where 0 is no effect and 10 is complete control
[2] = scale of 0 to 10 where 0 is no effect and 10 is complete control
[3] = Rate 125 g/ha, scale of 0 to 10 where 0 is no effect and 10 is complete control
[4] = Rate 250 g/ha, scale 0 to 10 (0 no effect, 10 complete control)
[5] = Rate 500 g/ha, scale of 0 to 10 where 0 is no effect and 10 is complete control
[6] = Rate 250 g/ha, scale 0 (no effect) to 10 (complete control)
[7] = Rate 31 g/ha, visual rating, scale 0 to 10 (0 no effect, 10 complete control)
[8] = Rate 500 g/ha, scale 0 to 10 (0 no effect, 10 complete control)

CC(C)N(C(=O)n1oc(=O)n(C(C)C)c1=O)c1ccc(Br)cc1 [Compound 691]
Wild oats plant response rating (wild oat; [1]): 2 | Plant response rating, Wild oats (wild oat; [2]): 6 | Corn plant response rating (corn; [1]): 0 | Plant response rating, Corn (corn; [3]): 0 | Plant response rating, Corn (corn; [4]): 0 | Sugarbeets plant response rating (sugar beet; [1]): 0 | Plant response rating, Sugarbeets (sugar beet; [2]): 2 | Morningglory plant response rating (morningglory; [1]): 0 | Plant response rating, Morningglory (morningglory; [2]): 0 | Wheat plant response rating (wheat; [1]): 0 | Plant response rating, Wheat (wheat; [2]): 0 | B. signalgrass plant response rating (surinam grass; [1]): 0 | Plant response rating, B. signalgrass (surinam grass; [3]): 8 | Plant response rating, B. signalgrass (surinam grass; [4]): 9 | Plant response rating, B. signalgrass (surinam grass; [5]): 10 | Velvetleaf plant response rating (velvetleaf; [1]): 0 | Plant response rating, Velvetleaf (velvetleaf; [2]): 0 | Redroot pigweed plant response rating (pigweed; [1]): 2 | Plant response rating, Redroot pigweed (pigweed; [2]): 3 | Bedstraw plant response rating (bedstraw; [1]): 0 | Plant response rating, Bedstraw (bedstraw; [3]): 9 | Plant response rating, Bedstraw (bedstraw; [4]): 9 | Nutsedge plant response rating (purple nutsedge; [1]): 0 | Giant foxtail plant response rating (giant foxtail; [1]): 9 | Plant response rating, Giant foxtail (giant foxtail; [2]): 10 | Soybean plant response rating (soybean; [1]): 2 | Plant response rating, Soybean (soybean; [2]): 2 | Cocklebur plant response rating (cocklebur; [1]): 0 | Plant response rating, Cocklebur (cocklebur; [4]): 0 | Plant response rating, Cocklebur (cocklebur; [5]): 0 | Rape plant response rating (rape; [1]): 0 | Plant response rating, Rape (rape; [2]): 3 | Blackgrass plant response rating (blackgrass; [1]): 4 | Plant response rating, Blackgrass (blackgrass; [3]): 9 | Plant response rating, Blackgrass (blackgrass; [4]): 10 | Plant response rating, Blackgrass (blackgrass; [5]): 10 | Crabgrass plant response rating (crabgrass; [1]): 9 | Plant response rating, Crabgrass (crabgrass; [3]): 9 | Plant response rating, Crabgrass (crabgrass; [4]): 10

CC(C)N(C(=O)n1oc(=O)n(Cc2nnc(-c3ccccc3)o2)c1=O)c1ccccc1 [Compound 716]
Wild oats plant response rating (wild oat; [1]): 0 | Plant response rating, Wild oats (wild oat; [2]): 0 | Wild oats plant response rating (wild oat; [6]): 0 | Corn plant response rating (corn; [7]): 0 | Corn plant response rating (corn; [1]): 0 | Plant response rating, Corn (corn; [3]): 0 | Corn plant response rating (corn; [6]): 0 | Sugarbeets plant response rating (sugar beet; [1]): 0 | Plant response rating, Sugarbeets (sugar beet; [2]): 0 | Sugarbeets plant response rating (sugar beet; [6]): 0 | Morningglory plant response rating (morningglory; [1]): 0 | Plant response rating, Morningglory (morningglory; [2]): 0 | Morningglory plant response rating (morningglory; [6]): 0 | Wheat plant response rating (wheat; [1]): 0 | Plant response rating, Wheat (wheat; [2]): 0 | Wheat plant response rating (wheat; [6]): 0 | B. signalgrass plant response rating (surinam grass; [7]): 0 | B. signalgrass plant response rating (surinam grass; [1]): 0 | Plant response rating, B. signalgrass (surinam grass; [3]): 0 | B. signalgrass plant response rating (surinam grass; [6]): 0 | Velvetleaf plant response rating (velvetleaf; [1]): 0 | Plant response rating, Velvetleaf (velvetleaf; [2]): 0 | Velvetleaf plant response rating (velvetleaf; [6]): 0 | Redroot pigweed plant response rating (pigweed; [1]): 0 | Plant response rating, Redroot pigweed (pigweed; [2]): 0 | Redroot pigweed plant response rating (pigweed; [6]): 0 | Bedstraw plant response rating (bedstraw; [7]): 0 | Bedstraw plant response rating (bedstraw; [1]): 0 | Plant response rating, Bedstraw (bedstraw; [3]): 0 | Bedstraw plant response rating (bedstraw; [6]): 0 | Nutsedge plant response rating (purple nutsedge; [1]): 0 | Plant response rating, Nutsedge (purple nutsedge; [3]): 0 | Giant foxtail plant response rating (giant foxtail; [7]): 0 | Giant foxtail plant response rating (giant foxtail; [1]): 0 | Plant response rating, Giant foxtail (giant foxtail; [2]): 0 | Giant foxtail plant response rating (giant foxtail; [6]): 0 | Soybean plant response rating (soybean; [1]): 0 | Plant response rating, Soybean (soybean; [2]): 0 | Soybean plant response rating (soybean; [6]): 0 | Cocklebur plant response rating (cocklebur; [7]): 0 | Cocklebur plant response rating (cocklebur; [1]): 0 | Plant response rating, Cocklebur (cocklebur; [3]): 0 | Cocklebur plant response rating (cocklebur; [6]): 0 | Rape plant response rating (rape; [1]): 0 | Plant response rating, Rape (rape; [2]): 0 | Rape plant response rating (rape; [6]): 0 | Blackgrass plant response rating (blackgrass; [7]): 0 | Blackgrass plant response rating (blackgrass; [1]): 0 | Plant response rating, Blackgrass (blackgrass; [3]): 0 | Blackgrass plant response rating (blackgrass; [6]): 0 | Crabgrass plant response rating (crabgrass; [7]): 0 | Crabgrass plant response rating (crabgrass; [1]): 0 | Plant response rating, Crabgrass (crabgrass; [3]): 0 | Crabgrass plant response rating (crabgrass; [6]): 0

C=C(Cn1c(=O)on(C(=O)N(c2ccc(F)cc2)C(C)C)c1=O)C(=O)OC [Compound 732]
Wild oats plant response rating (wild oat; [1]): 0 | Plant response rating, Wild oats (wild oat; [2]): 0 | Wild oats plant response rating (wild oat; [6]): 0 | Wild oats plant response rating (wild oat; [8]): 0 | Corn plant response rating (corn; [1]): 0 | Plant response rating, Corn (corn; [3]): 0 | Corn plant response rating (corn; [6]): 0 | Corn plant response rating (corn; [8]): 0 | Sugarbeets plant response rating (sugar beet; [1]): 0 | Plant response rating, Sugarbeets (sugar beet; [2]): 0 | Sugarbeets plant response rating (sugar beet; [6]): 0 | Sugarbeets plant response rating (sugar beet; [8]): 0 | Morningglory plant response rating (morningglory; [1]): 0 | Plant response rating, Morningglory (morningglory; [2]): 0 | Morningglory plant response rating (morningglory; [6]): 0 | Morningglory plant response rating (morningglory; [8]): 0 | Wheat plant response rating (wheat; [1]): 0 | Plant response rating, Wheat (wheat; [2]): 0 | Wheat plant response rating (wheat; [6]): 0 | Wheat plant response rating (wheat; [8]): 0 | B. signalgrass plant response rating (surinam grass; [1]): 0 | Plant response rating, B. signalgrass (surinam grass; [3]): 0 | B. signalgrass plant response rating (surinam grass; [6]): 0 | B. signalgrass plant response rating (surinam grass; [8]): 0 | Velvetleaf plant response rating (velvetleaf; [1]): 0 | Plant response rating, Velvetleaf (velvetleaf; [2]): 0 | Velvetleaf plant response rating (velvetleaf; [6]): 0 | Velvetleaf plant response rating (velvetleaf; [8]): 0 | Redroot pigweed plant response rating (pigweed; [1]): 0 | Plant response rating, Redroot pigweed (pigweed; [2]): 0 | Redroot pigweed plant response rating (pigweed; [6]): 0 | Redroot pigweed plant response rating (pigweed; [8]): 0 | Bedstraw plant response rating (bedstraw; [1]): 0 | Plant response rating, Bedstraw (bedstraw; [3]): 0 | Bedstraw plant response rating (bedstraw; [6]): 0 | Bedstraw plant response rating (bedstraw; [8]): 0 | Nutsedge plant response rating (purple nutsedge; [1]): 0 | Nutsedge plant response rating (purple nutsedge; [6]): 0 | Nutsedge plant response rating (purple nutsedge; [8]): 0 | Giant foxtail plant response rating (giant foxtail; [1]): 0 | Plant response rating, Giant foxtail (giant foxtail; [2]): 0 | Giant foxtail plant response rating (giant foxtail; [6]): 0 | Giant foxtail plant response rating (giant foxtail; [8]): 0 | Soybean plant response rating (soybean; [1]): 0 | Plant response rating, Soybean (soybean; [2]): 0 | Soybean plant response rating (soybean; [6]): 0 | Soybean plant response rating (soybean; [8]): 0 | Cocklebur plant response rating (cocklebur; [1]): 0 | Plant response rating, Cocklebur (cocklebur; [3]): 0 | Cocklebur plant response rating (cocklebur; [6]): 0 | Cocklebur plant response rating (cocklebur; [8]): 0 | Rape plant response rating (rape; [1]): 0 | Plant response rating, Rape (rape; [2]): 0 | Rape plant response rating (rape; [6]): 0 | Rape plant response rating (rape; [8]): 0 | Blackgrass plant response rating (blackgrass; [1]): 0 | Plant response rating, Blackgrass (blackgrass; [3]): 0 | Blackgrass plant response rating (blackgrass; [6]): 0 | Blackgrass plant response rating (blackgrass; [8]): 0 | Crabgrass plant response rating (crabgrass; [1]): 0 | Plant response rating, Crabgrass (crabgrass; [3]): 0 | Crabgrass plant response rating (crabgrass; [6]): 0 | Crabgrass plant response rating (crabgrass; [8]): 0

From US6737383B1, “Herbicidal oxadiazolidines” (priority 1999, dated 2004)
